{"source": "ChEMBL document CHEMBL1130597", "about": "“Design of a high affinity peptidomimetic opioid agonist from peptide pharmacophore models” (Bioorg Med Chem Lett, 1998)", "target": "Mu-type opioid receptor (Rattus norvegicus, UniProt P33535)", "sequence (P33535 whole entry)": "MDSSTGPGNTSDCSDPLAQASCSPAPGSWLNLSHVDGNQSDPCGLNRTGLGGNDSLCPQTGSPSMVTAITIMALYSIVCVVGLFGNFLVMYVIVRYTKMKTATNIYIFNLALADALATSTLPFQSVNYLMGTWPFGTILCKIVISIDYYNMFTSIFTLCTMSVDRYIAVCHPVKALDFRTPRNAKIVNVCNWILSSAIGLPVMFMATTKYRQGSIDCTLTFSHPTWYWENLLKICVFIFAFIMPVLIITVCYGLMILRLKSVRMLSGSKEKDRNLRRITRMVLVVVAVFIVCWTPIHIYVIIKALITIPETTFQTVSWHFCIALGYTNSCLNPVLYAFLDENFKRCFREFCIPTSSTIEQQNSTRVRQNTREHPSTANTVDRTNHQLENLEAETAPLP", "assay": "Compound was tested for its ability to stimulate [35S]GTP-gamma-S, binding to membranes from C6 glioma cells stably expressing rat mu opioid receptor", "type": "functional, cell membranes", "data": [{"smiles": "CC1(C)SSC[C@@H](NC(=O)[C@@H](N)Cc2ccc(O)cc2)C(=O)N[C@@H](Cc2ccccc2)C(=O)N[C@@H]1C(N)=O", "values": [{"measurement": "EC50", "result": 18.2, "unit": "nM"}]}]}
